The values below come from US20250235543A1, “MODIFIED PROTEINS AND PROTEIN DEGRADERS” (Cullgen (Shanghai), Inc., priority 2021, published 2025).

A word on the Kd: it is the constant that tells how readily two partners part at equilibrium.

Molecules are shown by their SMILES. A value given as a limit tells only on which side of the number the result lay.

For assay [1], the system named is cyclin D1, cyclin D2, cyclin D3. Description: Immunoblot of cyclin D protein levels in Calu-1 (and BT-549) cells. Format: cell-based. The settings on record: Calu-1 cells, 16 hours; CPD-042 vs CPD-002, CPD-049 vs CPD-031. As to the method:
Specific exemplary heterobifunctional compounds were characterized in Calu-1, BT-549 and other cells. Cells that express cyclin D1-3 and CDK4/6 proteins were treated with heterobifunctional compounds disclosed herein at indicated concentrations for 16 hours. Cells were collected, lysed and subject to immunoblotting using an antibody specific to cyclin D1, cyclin D2, cyclin D3, CDK4, CDK6 or phosphorylated R^b proteins. Tubulin or GAPDH was used as the loading control. DMSO treatment was used as the negative control.
In a time-course study, Calu-1 cells were treated with 500 nM CPD-002, or 100 nM CPD-031 for indicated period of time prior to immunoblotting (FIG. 4A-4B).
The heterobifunctional compound-mediated degradation was dependent on the ubiquitin-proteasome system and cullin E3 ligase. […] In addition, DDB1 E3 ligase was critical for the degrader-induced cyclin D downregulation. Depletion of DDB1 using CRISPR-Cas9 technology attenuated the cyclin D degradation induced by CPD-031 (FIG. 5C).
(§1) To verify that heterobifunctional compound-mediated degradation is dependent on the binding to CDK4-cyclin D complex, we designed three negative control compounds, CPD-042, CPD-049 and CPD-380, which are derived from CPD-002 CPD-031 and CPD-343, respectively. These three control compounds bear the same DDB1 ligand and linker as their corresponding active heterobifunctional compounds but with modified warheads to impair the binding of the control compounds to CDK4. […] However, the binding to CDK4 is not sufficient for cyclin D degradation. Two cereblon (CRBN)-recruiting reference heterobifunctional compounds, CP-10 (Su, J Med Chem, 2019; CAS No.: 2366268-80-4) and BSJ-03-123 (Brand, Cell Chem Biol, 2019; CAS No.: 2361493-16-3) were analyzed in Calu-1 cells.

Assay [2] has as its system Calu-1 cells. Description: Anti-viability / anti-proliferation in Calu-1 cells. It counts as cell-based. The settings on record: CPD-042 vs CPD-002, CPD-049 vs CPD-031. As to the method:
FIG. 6 show immunoblots of cyclin D1, cyclin D2, cyclin D3, and CDK4 proteins expressed by Calu-1 cells after treatment with a dose range of control compounds CPD-042 (A), or CPD-049 (B) for 16 hours, and anti-viability curves of Calu-1 cells in the presence of CPD-002 and CPD-042 (C), or CPD-031 and CPD-049 (D).
FIG. 11A-11B show immunoblots of cyclin D1, CDK4, and CDK6 proteins expressed by Calu-1 cells after treatment with a dose range of heterobifunctional reference compound CP-10, or BSJ-03-123 for 8 hours (FIG. 11A), and anti-viability curves of Calu-1 cells in the presence of CP-10, or BSJ-03-123 for 3 days (FIG. 11B).
as §1

Assay [3] addresses T1, DDB1 (Homo sapiens, UniProt Q16531, D705G/DEL396-460/DEL463-701/I704S/T703N).
T1 construct: His6 (N, cleaved yes); TEV protease cleavage site (N, cleaved yes); made in house; host or cells: SF9 insect cells, Bac-to-Bac baculovirus, pFastBacHTB vector
Description: SPR binding assay to immobilized DDB1ΔBPB. As to conditions: binding affinities to DDB1. As to the method: The binding affinities of heterobifunctional compounds to DDB1 were determined by SPR assay (FIG. 1A-1B). Purified DDB1ΔBPB proteins were immobilized on a CM5 sensor chip, and a dose range of compound solutions were injected in multi-cycle kinetic format. Data were fit to a steady state model to provide equivalent dissociation constants (Kd).
Human DDB1ΔBPB (UniProt: Q16531. BPB domain, aa 396 to 705, is replaced with a GNGNSG linker) coding sequences were cloned into pFastBacHTB vector and were expressed in SF9 cells using Bac-to-Bac baculovirus expression system (Thermo Fisher Scientific). The expression constructs include an N-terminal His6-tag to facilitate the purification, and a TEV protease cleavage site in between. DDB1ΔBPB proteins were obtained from supernatant of cell lysates and purified through sequential application of Ni affinity column (Ni-NTA column, Bio-Rad) and size-exclusion column (Superdex 200 16/600GL column, GE Healthcare) chromatography. Protein tags were cleaved off by TEV protease, and the resulting untagged proteins were further purified by Ni affinity column. Purified proteins were verified by immunoblotting, analytic SEC, and LC-MS.
SPR studies were performed on a Biacore X100 plus instrument (GE Healthcare). Immobilization of purified DDB1ΔBPB was carried out at 25° C. using a CM5 sensor chip. The surface was pre-equilibrated in HBS-EP running buffer (10 mM HEPES, pH7.4, 150 mM NaCl, 3 mM EDTA, 0.05% P20), before it was activated with EDC/NHS. DDB1ΔBPB proteins were immobilized by amine coupling to a density of 10,000-12,000 resonance units (RUs) on flow cell FC2, whereas flow cell FC1 was used as reference. Both protein immobilized and reference surfaces were deactivated with 1M ethanolamine. All interaction experiments were performed at 25° C. Test compounds were prepared and serially diluted in HBS-EP running buffer containing final 5% DMSO (6-point two-fold serial dilution, 100 μM-3.125 μM final concentration of compounds). Compound solutions were injected individually in multi-cycle kinetic format without regeneration (flow rate 30 μl/min, association time 120 s, dissociation time 120 s). Sensorgrams from reference surfaces and blank injections were subtracted from the raw data (double-referencing) and the data was solvent-corrected prior to analysis. All data were fit to steady state affinity model using Biacore Evaluation Software to provide equivalent dissociation constants (Kd).

For assay [4], the system named is cyclin D1. Description: Cyclin D1 percentage degradation in Calu-1 cells (immunoblotting). It counts as cell-based. As to conditions: 200 nM, 16 hours. The procedure, abridged: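 Cells were rinsed once in cold PBS and lysed in cold RIPA buffer containing protease and phosphatase inhibitors, with gentle agitation at 4° C. for 30 min. Lysates were spun at 13,000 rpm for 10 min at 4° C., protein was measured by BCA, and samples were boiled in Laemmli buffer at 99° C. for 5 min before SDS-PAGE immunoblotting.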

Assay [5] deals with T2, CDK4 (Homo sapiens, UniProt P11802).
T2 construct: endogenous in cells; host or cells: Calu-1
Description: CDK4 percentage degradation in Calu-1 cells (immunoblotting). As to conditions: Calu-1 cells, 200 nM, 16 hours; read-out: CDK4 Degradation (200 nM). Format: cell-based. The procedure, abridged: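 Cultured cells were rinsed once in cold PBS and lysed in cold RIPA buffer containing protease and phosphatase inhibitors, with gentle agitation at 4° C. for 30 min. Lysates were centrifuged at 13,000 rpm for 10 min at 4° C., and protein was quantified by BCA. Samples were then separated by SDS-PAGE, detected with ECL, and the CDK4 bands quantified in Image Lab.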
On the technique in general: In western blotting, separated proteins are transferred to a membrane and probed.

Assay [6] concerns Calu-1. Description: Cell viability assay, Calu-1. The settings on record: Calu-1 cells, 96-well plates, serial dilution, 3 days. Format: cell-based. As to the method: Cells were treated with CDK4/6 inhibitors palbociclib, ribociclib, or abemaciclib, or heterobifunctional compounds CPD-002 or CPD-031 following a 9-point serial dilution for 3 days.
Cells were seeded at a density of 2,000-5,000 cells per well in 96-well assay plates and treated with test compounds following a 10-point serial dilution for 3-6 days. Cell viability was determined using the CellTiter-Lumi assay kit according to the manufacturer's instructions. The dose-response curves were determined and IC50 values were calculated using the GraphPad Prism software following a nonlinear regression (least squares fit) method. Data presented was mean±standard deviation (SD) unless otherwise indicated.

The subject of assay [7] is cyclin D1, cyclin D2, cyclin D3, CDK4 and CDK6. Description: Immunoblotting of cyclin D and CDK4/6 protein levels in Calu-1 cells. Format: cell-based. The settings on record: dose range, 16 hours, negative control compounds. As to the method:
Calu-1 (FIG. 2A) or BT-549 (FIG. 2B) cells were treated with CPD-002, CPD-004, or palbociclib at indicated concentrations for 16 hours.
Calu-1 cells were treated with CPD-031 at indicated concentrations for 16 hours.
Calu-1 cells were treated with CPD-002 or CPD-031 at 500 nM or 100 nM, respectively for indicated period of time.
Calu-1 cells were pre-treated with DMSO, 20 μM MG-132 (MG), 5 μM MLN4924 (MLN) or 1 μM TAK-243 (TAK) for 2 hours, and subsequently incubated with 500 nM CPD-002, 500 nM CPD-004, or 100 nM CPD-031 for another 4 h or 2 h prior to immunoblotting (FIG. 5A-5B).
Calu-1 cells were treated with a dose range of negative control compounds CPD-042 or CPD-049 for 16 hours (FIG. 6A-6B).
Calu-1 cells were treated with reference compounds CP-10 or BSJ-03-123 at indicated concentrations for 8 hours.
Cultured cells were washed with cold PBS once and lysed in cold RIPA buffer supplemented with protease inhibitors and phosphatase inhibitors (Beyotime Biotechnology). The solutions were then incubated at 4° C. for 30 min with gentle agitation to fully lysed cells. Cell lysates were centrifuged at 13,000 rpm for 10 min at 4° C. and pellets were discarded. Total protein concentrations in the lysates were determined following BCA assays (Beyotime Biotechnology). Cell lysates were mixed with Laemmli loading buffer and heated at 99° C. for 5 min. Proteins were resolved on SDS-PAGE and visualized using Western ECL Substrate kits on a ChemiDoc MP Imaging system (Bio-Rad). Protein bands were quantitated using the Image Lab software provided by Bio-Rad.

T2 sequence (P11802 2-303 limits assumed): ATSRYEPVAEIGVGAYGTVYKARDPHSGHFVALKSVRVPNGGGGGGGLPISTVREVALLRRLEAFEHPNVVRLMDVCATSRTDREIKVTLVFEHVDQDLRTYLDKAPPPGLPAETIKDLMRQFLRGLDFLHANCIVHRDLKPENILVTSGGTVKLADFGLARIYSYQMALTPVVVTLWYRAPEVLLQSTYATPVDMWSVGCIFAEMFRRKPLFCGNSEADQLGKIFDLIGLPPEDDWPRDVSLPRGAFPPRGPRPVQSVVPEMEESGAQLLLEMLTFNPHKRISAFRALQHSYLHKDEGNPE
T2 sequence (P24385 whole entry partner): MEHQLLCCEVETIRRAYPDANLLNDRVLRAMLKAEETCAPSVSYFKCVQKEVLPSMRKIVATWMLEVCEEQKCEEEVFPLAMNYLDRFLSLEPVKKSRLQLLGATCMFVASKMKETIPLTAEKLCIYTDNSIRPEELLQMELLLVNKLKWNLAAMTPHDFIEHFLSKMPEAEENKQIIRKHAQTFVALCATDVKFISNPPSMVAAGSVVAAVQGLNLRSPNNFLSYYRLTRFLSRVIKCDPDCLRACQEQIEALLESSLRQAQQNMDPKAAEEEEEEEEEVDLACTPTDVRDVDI
T2 sequence (Q16531 2-1140 limits assumed, further chain): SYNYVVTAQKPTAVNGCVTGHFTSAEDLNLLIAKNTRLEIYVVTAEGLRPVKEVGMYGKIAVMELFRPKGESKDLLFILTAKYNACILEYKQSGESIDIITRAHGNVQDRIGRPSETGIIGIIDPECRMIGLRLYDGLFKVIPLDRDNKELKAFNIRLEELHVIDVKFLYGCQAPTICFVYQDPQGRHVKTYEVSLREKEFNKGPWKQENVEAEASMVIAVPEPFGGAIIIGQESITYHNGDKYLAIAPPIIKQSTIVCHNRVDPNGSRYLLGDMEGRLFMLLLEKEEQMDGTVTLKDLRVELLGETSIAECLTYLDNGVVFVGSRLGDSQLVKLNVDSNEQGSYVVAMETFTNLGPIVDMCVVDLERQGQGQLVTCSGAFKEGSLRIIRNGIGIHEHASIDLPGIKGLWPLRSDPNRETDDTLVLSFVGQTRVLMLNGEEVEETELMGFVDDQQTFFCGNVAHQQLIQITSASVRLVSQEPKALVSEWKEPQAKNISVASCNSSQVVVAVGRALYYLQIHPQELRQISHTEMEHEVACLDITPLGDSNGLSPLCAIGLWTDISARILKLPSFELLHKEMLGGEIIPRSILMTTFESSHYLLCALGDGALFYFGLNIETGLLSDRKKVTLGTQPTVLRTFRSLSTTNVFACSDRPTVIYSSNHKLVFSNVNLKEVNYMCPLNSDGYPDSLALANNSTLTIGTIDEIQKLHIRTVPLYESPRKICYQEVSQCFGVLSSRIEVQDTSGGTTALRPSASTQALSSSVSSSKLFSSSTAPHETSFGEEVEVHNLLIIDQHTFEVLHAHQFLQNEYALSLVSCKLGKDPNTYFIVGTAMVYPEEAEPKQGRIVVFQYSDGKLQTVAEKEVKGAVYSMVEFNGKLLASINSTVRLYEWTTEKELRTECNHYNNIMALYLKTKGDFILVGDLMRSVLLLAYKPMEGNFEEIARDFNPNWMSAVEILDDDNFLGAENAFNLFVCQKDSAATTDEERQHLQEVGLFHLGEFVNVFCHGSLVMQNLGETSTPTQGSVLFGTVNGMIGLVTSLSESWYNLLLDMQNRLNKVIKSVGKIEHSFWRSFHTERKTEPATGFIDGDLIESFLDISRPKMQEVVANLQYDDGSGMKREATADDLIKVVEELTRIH
T1 sequence (Q16531 other isoform, or with tags, fused parts or gaps DEL396-460/DEL463-701/T703N/I704S/D705G): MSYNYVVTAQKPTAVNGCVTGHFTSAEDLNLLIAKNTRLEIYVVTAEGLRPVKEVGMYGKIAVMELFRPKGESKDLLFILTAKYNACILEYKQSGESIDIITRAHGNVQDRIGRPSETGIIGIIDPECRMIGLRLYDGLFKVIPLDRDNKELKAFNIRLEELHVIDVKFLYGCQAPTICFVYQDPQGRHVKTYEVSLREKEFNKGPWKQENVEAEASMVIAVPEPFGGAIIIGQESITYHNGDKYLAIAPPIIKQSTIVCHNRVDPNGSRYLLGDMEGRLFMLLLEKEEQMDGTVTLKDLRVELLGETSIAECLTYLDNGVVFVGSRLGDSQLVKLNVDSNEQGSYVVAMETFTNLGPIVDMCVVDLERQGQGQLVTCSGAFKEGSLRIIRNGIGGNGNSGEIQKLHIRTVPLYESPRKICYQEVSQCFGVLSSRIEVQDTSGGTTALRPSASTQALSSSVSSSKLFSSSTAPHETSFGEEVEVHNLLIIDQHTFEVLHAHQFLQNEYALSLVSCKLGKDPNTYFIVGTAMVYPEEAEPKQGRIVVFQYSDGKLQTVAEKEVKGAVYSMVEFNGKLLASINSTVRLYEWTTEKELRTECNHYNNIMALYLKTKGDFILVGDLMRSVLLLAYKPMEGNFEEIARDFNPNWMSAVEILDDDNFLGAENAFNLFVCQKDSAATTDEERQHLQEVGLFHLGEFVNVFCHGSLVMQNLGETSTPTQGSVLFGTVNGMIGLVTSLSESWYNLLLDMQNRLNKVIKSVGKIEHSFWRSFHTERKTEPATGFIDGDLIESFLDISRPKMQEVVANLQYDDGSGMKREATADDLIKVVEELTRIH

With `CC(=O)c1c(C)c2cnc(N(C)c3ccc(N4CCN(CC(=O)NCCOCCOCCOCCOCCOCCNc5ccc(C(=O)Nc6ncc(C)s6)c(C)c5)CC4)cn3)nc2n(C2CCCC2)c1=O` [CPD-042, 4-((1-(4-(6-((6-Acetyl-8-cyclopentyl-5-methyl-7-oxo-7,8-dihydropyrido[2,3-d]pyrimidin-2-yl)(methyl)amino)pyridin-3-yl)piperazin-1-yl)-2-oxo-6,9,12,15,18-pentaoxa-3-azaicosan-20-yl)amino)-2-methyl-N-(5-methylthiazol-2-yl)benzamide], the “decrease of degradation potency versus corresponding active compound” value in assay [1] is more than 10 fold. Further, the “decrease of cellular anti-proliferation activity versus corresponding active compound” value in assay [2] is given as more than 20 fold. In assay [3], this molecule returned a dissociation constant Kd of less than 20 µM. Also, in assay [4], the “CyclinD1 Degradation (200 nM)” value is reported as “D (protein percentage degradation <30%)”. Also, in assay [5], the inhibition at 0.2 µM is less than 30%. Besides, in assay [6], the “cell viability (cellular anti-proliferation activity)” value is listed as “much weaker cellular anti-proliferation activities”. Also, in assay [7], the “degradation potencies compared with corresponding active heterobifunctional compounds” value is given as “much weaker degradation potencies”.

In the case of `CC(=O)c1c(C)c2cnc(N(C)c3ccc(N4CCN(CC(=O)NCCOCCOCCOCCOCCOCCNc5ccc(C(=O)Nc6nc(C)c(C)s6)c(C)c5)CC4)cn3)nc2n(C2CCCC2)c1=O` [CPD-049, 4-((1-(4-(6-((6-Acetyl-8-cyclopentyl-5-methyl-7-oxo-7,8-dihydropyrido[2,3-d]pyrimidin-2-yl)(methyl)amino)pyridin-3-yl)piperazin-1-yl)-2-oxo-6,9,12,15,18-pentaoxa-3-azaicosan-20-yl)amino)-N-(4,5-dimethylthiazol-2-yl)-2-methylbenzamide], the “decrease of degradation potency versus corresponding active compound” value in assay [1] is given as more than 100 fold. Moreover, the “decrease of cellular anti-proliferation activity versus corresponding active compound” value in assay [2] is more than 100 fold. This molecule also registered a Kd in assay [3] of 20 to 50 µM. Moreover, the “CyclinD1 Degradation (200 nM)” value in assay [4] was “D (protein percentage degradation <30%)”. In addition, in assay [5], the inhibition at 0.2 µM is less than 30%. In assay [6], the “cell viability (cellular anti-proliferation activity)” value is recorded as “much weaker cellular anti-proliferation activities”. Moreover, the “degradation potencies compared with corresponding active heterobifunctional compounds” value in assay [7] is “much weaker degradation potencies”.
